According to patent US20260347338A1, “PYRIMIDINE/PYRIDINE DERIVATIVES OR SALTS THEREOF AND PHARMACEUTICAL COMPOSITIONS COMPRISING THE SAME” (YUHAN CORPORATION, priority 2023, published 2026):
Structures can show the parent of a compound that is named as a salt.

Target: T1, human recombinant HPK1 (Homo sapiens, UniProt Q92918)
T1 construct: purchased BPS Bioscience
Test: Inhibitory activity against human recombinant HPK1 (TR-FRET)
Format: biochemical
Settings: ULight-p70S6K peptide, ATP at Km, room temperature, 1 hour, 0.32 to 1000 nM compound
Method in brief: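 Recombinant human HPK1 with ULight-p70S6K peptide and ATP at Km, 1 h at room temperature in HEPES pH 7.4 buffer with Mg2+, Mn2+, EGTA, DTT; compounds 0.32–1000 nM final. EDTA stop, Eu-anti-phosphopeptide TR-FRET read (665 nm); IC50 from % inhibition versus DMSO, binned A–D at 10, 50, 100 nM.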

T1 sequence (Q92918 whole entry): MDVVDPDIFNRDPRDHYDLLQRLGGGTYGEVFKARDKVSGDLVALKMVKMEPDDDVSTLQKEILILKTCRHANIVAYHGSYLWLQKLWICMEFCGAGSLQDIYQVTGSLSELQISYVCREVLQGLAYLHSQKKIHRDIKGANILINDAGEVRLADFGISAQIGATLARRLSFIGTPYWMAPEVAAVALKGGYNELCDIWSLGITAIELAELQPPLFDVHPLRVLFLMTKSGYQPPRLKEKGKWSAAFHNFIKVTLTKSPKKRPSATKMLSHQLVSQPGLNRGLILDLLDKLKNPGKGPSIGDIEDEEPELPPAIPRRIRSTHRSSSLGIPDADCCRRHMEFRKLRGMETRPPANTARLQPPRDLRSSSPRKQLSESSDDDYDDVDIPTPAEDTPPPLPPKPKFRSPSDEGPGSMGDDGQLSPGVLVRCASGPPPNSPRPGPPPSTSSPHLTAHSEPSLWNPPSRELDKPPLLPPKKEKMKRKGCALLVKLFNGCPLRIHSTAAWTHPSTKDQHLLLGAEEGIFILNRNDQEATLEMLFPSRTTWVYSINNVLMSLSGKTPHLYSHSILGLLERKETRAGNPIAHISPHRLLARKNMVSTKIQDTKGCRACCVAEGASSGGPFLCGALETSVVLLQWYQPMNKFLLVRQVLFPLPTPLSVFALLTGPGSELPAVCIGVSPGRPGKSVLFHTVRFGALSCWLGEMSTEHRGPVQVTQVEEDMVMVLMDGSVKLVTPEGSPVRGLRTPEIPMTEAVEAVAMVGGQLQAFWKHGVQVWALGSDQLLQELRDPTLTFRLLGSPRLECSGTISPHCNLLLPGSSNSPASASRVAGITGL

SMILES: COc1cc(F)cc(F)c1-c1nccc(Nc2cc(N3CCC[C@H](O)C3)c(-c3cnn(C(F)(F)F)c3)cn2)n1 [Example 171, (S)-1-(2-((2-(2,4-difluoro-6-methoxyphenyl)pyrimidin-4-yl)amino)-5-(1-(trifluoromethyl)-1H-pyrazol-4-yl)pyridin-4-yl)piperidin-3-ol]
- IC50: ≤ 10 nM

SMILES: COc1cc(F)cc(F)c1-c1nccc(Nc2cc(N3CCC[C@H](O)C3)c(-c3cnn(CC(F)F)c3)cn2)n1 [Example 172, (S)-1-(2-((2-(2,4-difluoro-6-methoxyphenyl)pyrimidin-4-yl)amino)-5-(1-(2,2-difluoroethyl)-1H-pyrazol-4-yl)pyridin-4-yl)piperidin-3-ol]
- IC50: ≤ 10 nM

SMILES: COc1cccc(F)c1-c1nc(Nc2cc(N3CCC[C@H](N)C3)c(-c3cnn(C(F)(F)F)c3)cn2)ccc1N [Example 173, N^2-(4-((S)-3-aminopiperidin-1-yl)-5-(1-(trifluoromethyl)-1H-pyrazol-4-yl)pyridin-2-yl)-6-(2-fluoro-6-methoxyphenyl)pyridin-2,5-diamine hydrochloride]
- IC50: ≤ 10 nM

SMILES: COc1cc(F)cc(F)c1-c1nccc(Nc2cc(N3CCC[C@H](O)C3)c(-c3cnn(CC(F)(F)F)c3)cn2)n1 [Example 174, (S)-1-(2-((2-(2,4-difluoro-6-methoxyphenyl)pyrimidin-4-yl)amino)-5-(1-(2,2,2-trifluoroethyl)-1H-pyrazol-4-yl)pyridin-4-yl)piperidin-3-ol]
- IC50: ≤ 10 nM

SMILES: COc1cccc(F)c1-c1nccc(Nc2cc(N3CCC[C@H](N)C3)c(-c3cnn(CC(F)(F)F)c3)nn2)n1 [Example 175, (S)-5-(3-aminopiperidin-1-yl)-N-(2-(2-fluoro-6-methoxyphenyl)pyrimidin-4-yl)-6-(1-(2,2,2-trifluoroethyl)-1H-pyrazol-4-yl)pyridazin-3-amine hydrochloride]
- IC50: ≤ 10 nM

SMILES: COc1cccc(F)c1-c1nccc(Nc2cc(N3CCC[C@H](N)C3)c(-c3ccc(C(=O)N4CCN(C)CC4)cc3)cn2)n1 [Example 176, (S)-(4-(4-(3-aminopiperidin-1-yl)-6-((2-(2-fluoro-6-methoxyphenyl)pyrimidin-4-yl)amino)pyridin-3-yl)phenyl)(4-methylpiperazin-1-yl)methanone hydrochloride]
- IC50: ≤ 10 nM

SMILES: COc1cccc(F)c1-c1nc(Nc2cc(N3CCC[C@H](O)C3)c(-c3cnn(C4CCOCC4)c3)cn2)ccc1N [Example 177, (3S)-1-(2-((5-amino-6-(2-fluoro-6-methoxyphenyl)pyridin-2-yl)amino)-5-(1-(tetrahydro-2H-pyran-4-yl)-1H-pyrazol-4-yl)pyridin-4-yl)piperidin-3-ol]
- IC50: ≤ 10 nM

SMILES: COc1cccc(F)c1-c1nc(Nc2cc(N3CCC[C@H](O)C3)c(-c3cnn(C(F)(F)F)c3)cn2)ccc1N [Example 178, (3S)-1-(2-((5-amino-6-(2-fluoro-6-methoxyphenyl)pyridin-2-yl)amino)-5-(1-(trifluoromethyl)-1H-pyrazol-4-yl)pyridin-4-yl)piperidin-3-ol]
- IC50: ≤ 10 nM

SMILES: COc1cccc(F)c1-c1nc(Nc2cc(N3CCC[C@H](O)C3)c(-c3cnn(CC(F)F)c3)cn2)ccc1N [Example 179, (3S)-1-(2-((5-amino-6-(2-fluoro-6-methoxyphenyl)pyridin-2-yl)amino)-5-(1-(2,2-difluoroethyl)-1H-pyrazol-4-yl)pyridin-4-yl)piperidin-3-ol]
- IC50: ≤ 10 nM

SMILES: COc1cccc(F)c1-c1nc(Nc2cc(N3CCC[C@H](O)C3)c(-c3cnn(CC(F)(F)F)c3)cn2)ccc1N [Example 180, (3S)-1-(2-((5-amino-6-(2-fluoro-6-methoxyphenyl)pyridin-2-yl)amino)-5-(1-(2,2,2-trifluoroethyl)-1H-pyrazol-4-yl)pyridin-4-yl)piperidin-3-ol]
- IC50: ≤ 10 nM

SMILES: COc1cccc(F)c1-c1nc(Nc2cc(N3CCC[C@H](N)C3)c(-c3cnn(C4CCOCC4)c3)cn2)ccc1N [Example 181, N^2-(4-((S)-3-aminopiperidin-1-yl)-5-(1-(tetrahydro-2H-pyran-4-yl)-1H-pyrazol-4-yl)pyridin-2-yl)-6-(2-fluoro-6-methoxyphenyl)pyridin-2,5-diamine hydrochloride]
- IC50: ≤ 10 nM

SMILES: COc1cc(F)cc(F)c1-c1nccc(Nc2cc(N3CCC[C@H](O)C3)c(-c3cnn(C(F)F)c3)cn2)n1 [Example 182, (S)-1-(2-((2-(2,4-difluoro-6-methoxyphenyl)pyrimidin-4-yl)amino)-5-(1-(difluoromethyl)-1H-pyrazol-4-yl)pyridin-4-yl)piperidin-3-ol]
- IC50: ≤ 10 nM

SMILES: COc1cc(F)cc(F)c1-c1nc(Nc2cc(N3CCC[C@H](O)C3)c(-c3cnn(C(F)F)c3)cn2)ccc1[N+](=O)[O-] [Example 183, (3S)-1-(2-((6-(2,4-difluoro-6-methoxyphenyl)-5-nitropyridin-2-yl)amino)-5-(1-(difluoromethyl)-1H-pyrazol-4-yl)pyridin-4-yl)piperidin-3-ol]
- IC50: ≤ 10 nM

SMILES: COc1cc(F)cc(F)c1-c1nc(Nc2cc(N3CCC[C@H](O)C3)c(-c3cnn(C(F)F)c3)cn2)ccc1N [Example 184, (3S)-1-(2-((5-amino-6-(2,4-difluoro-6-methoxyphenyl)pyridin-2-yl)amino)-5-(1-(difluoromethyl)-1H-pyrazol-4-yl)pyridin-4-yl)piperidin-3-ol]
- IC50: ≤ 10 nM

SMILES: COC(=O)c1cc(F)c(-c2nccc(Nc3cc(N4CCC[C@H](N)C4)c(-c4cnn(C(F)F)c4)cn3)n2)c(OC)c1 [Example 185, methyl (S)-4-(4-((4-(3-aminopiperidin-1-yl)-5-(1-(difluoromethyl)-1H-pyrazol-4-yl)pyridin-2-yl)amino)pyrimidin-2-yl)-3-fluoro-5-methoxybenzoate hydrochloride]
- IC50: ≤ 10 nM

SMILES: CNC(=O)c1cc(F)c(-c2nccc(Nc3cc(N4CCC[C@H](N)C4)c(-c4cnn(C(F)F)c4)cn3)n2)c(OC)c1 [Example 186, (S)-4-(4-((4-(3-aminopiperidin-1-yl)-5-(1-(difluoromethyl)-1H-pyrazol-4-yl)pyridin-2-yl)amino)pyrimidin-2-yl)-3-fluoro-5-methoxy-N-methylbenzamide hydrochloride]
- IC50: ≤ 10 nM

SMILES: COc1cc(C(=O)N(C)C)cc(F)c1-c1nccc(Nc2cc(N3CCC[C@H](N)C3)c(-c3cnn(C(F)F)c3)cn2)n1 [Example 187, (S)-4-(4-((4-(3-aminopiperidin-1-yl)-5-(1-(difluoromethyl)-1H-pyrazol-4-yl)pyridin-2-yl)amino)pyrimidin-2-yl)-3-fluoro-5-methoxy-N,N-dimethylbenzamide hydrochloride]
- IC50: ≤ 10 nM

SMILES: OC1CN(Cc2csc(-c3nccc(Nc4cc(N5CCC[C@H](O)C5)c(-c5cnn(C6CCOCC6)c5)cn4)n3)c2)C1 [Example 188, (S)-1-(2-((2-(4-((3-hydroxyazetidin-1-yl)methyl)thiophen-2-yl)pyrimidin-4-yl)amino)-5-(1-(tetrahydro-2H-pyran-4-yl)-1H-pyrazol-4-yl)pyridin-4-yl)piperidin-3-ol]
- IC50: 10 to 50 nM

SMILES: COc1cc(C=O)cc(F)c1-c1nccc(Nc2cc(N3CCC[C@H](O)C3)c(-c3cnn(C4CCOCC4)c3)cn2)n1 [Example 189, (S)-3-fluoro-4-(4-((4-(3-hydroxypiperidin-1-yl)-5-(1-(tetrahydro-2H-pyran-4-yl)-1H-pyrazol-4-yl)pyridin-2-yl)amino)pyrimidin-2-yl)-5-methoxybenzaldehyde]
- IC50: ≤ 10 nM

SMILES: CNCc1cc(F)c(-c2nccc(Nc3cc(N4CCC[C@H](O)C4)c(-c4cnn(C5CCOCC5)c4)cn3)n2)c(OC)c1 [Example 190, (S)-1-(2-((2-(2-fluoro-6-methoxy-4-((methylamino)methyl)phenyl)pyrimidin-4-yl)amino)-5-(1-(tetrahydro-2H-pyran-4-yl)-1H-pyrazol-4-yl)pyridin-4-yl)piperidin-3-ol]
- IC50: ≤ 10 nM

SMILES: COc1cccc(F)c1-c1nc(Nc2cc(N3CCC[C@H](O)C3)c(C(N)=O)cn2)ccc1[N+](=O)[O-] [Example 191, 6-((6-(2-fluoro-6-methoxyphenyl)-5-nitropyridin-2-yl)amino)-4-((S)-3-hydroxypiperidin-1-yl)nicotinamide]
- IC50: ≤ 10 nM

SMILES: COc1cccc(F)c1-c1nccc(Nc2cc(N3CCC[C@H](O)C3)c(C(=O)N[C@@H]3CCN(C)C3)cn2)n1 [Example 192, 6-((2-(2-fluoro-6-methoxyphenyl)pyrimidin-4-yl)amino)-4-((S)-3-hydroxypiperidin-1-yl)-N-((R)-1-methylpyrrolidin-3-yl)nicotinamide]
- IC50: 10 to 50 nM

SMILES: COc1cccc(F)c1-c1nc(Nc2cc(N3CCC[C@H](O)C3)c(C(N)=O)cn2)ccc1N [Example 193, 6-((5-amino-6-(2-fluoro-6-methoxyphenyl)pyridin-2-yl)amino)-4-((S)-3-hydroxypiperidin-1-yl)nicotinamide]
- IC50: ≤ 10 nM

SMILES: COc1cccc(F)c1-c1nc(Nc2cc(N3CCC[C@H](O)C3)c(C(=O)N[C@@H]3CC[C@@H](O)C3)cn2)ccc1[N+](=O)[O-] [Example 194, 6-((6-(2-fluoro-6-methoxyphenyl)-5-nitropyridin-2-yl)amino)-N-((1R,3R)-3-hydroxycyclopentyl)-4-((S)-3-hydroxypiperidin-1-yl)nicotinamide]
- IC50: ≤ 10 nM

SMILES: COc1cccc(F)c1-c1nc(Nc2cc(N3CCC[C@H](O)C3)c(C(=O)NC3CC(O)C3)cn2)ccc1[N+](=O)[O-] (stereo partly drawn) [Example 196, 6-((6-(2-fluoro-6-methoxyphenyl)-5-nitropyridin-2-yl)amino)-N-(3-hydroxycyclobutyl)-4-((S)-3-hydroxypiperidin-1-yl)nicotinamide]
- IC50: ≤ 10 nM

SMILES: COc1cccc(F)c1-c1nc(Nc2cc(N3CCC[C@H](O)C3)c(C(=O)N[C@@H]3CC[C@H]3O)cn2)ccc1[N+](=O)[O-] [Example 197, 6-((6-(2-fluoro-6-methoxyphenyl)-5-nitropyridin-2-yl)amino)-N-((1R,2R)-2-hydroxycyclobutyl)-4-((S)-3-hydroxypiperidin-1-yl)nicotinamide]
- IC50: ≤ 10 nM
